Data published in patent publication US12479827B2, “Heteroaromatic carboxamide derivatives as plasma kallikrein inhibitors” (Boehringer Ingelheim International GmbH, priority 2020, dated 2025).

How the values were obtained:
Human PKK = target: T1, Human PKK (Homo sapiens, UniProt P03952); assay: Inhibition of PKK using an endpoint assay (human PKK); assay type: biochemical; conditions: fluorogenic substrate H-Pro-Phe-Arg-AMC, 1 h room temperature, method names human or rat PKK, table does not say which
T1 construct: purchased Enzyme Research Laboratories
How it was run: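 Endpoint fluorescence (ex 355 nm, em 460 nm) after stopping with 1 μM final PPACK II. Buffer: Tris 100 mM pH 7.8, NaCl 150 mM, BSA 0.1%, Tween20 0.05%, with 1% DMSO present; enzyme is human plasma kallikrein.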

[1] = target: T2, PKK in kaolin activated human platelet poor plasma (Homo sapiens, UniProt P03952); assay: Inhibition of PKK in kaolin activated human PPP; assay type: biochemical; conditions: 25-750 μg/mL kaolin, global fit, text b200 calls the values IC90;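 further: readout is the rate of fluorogenic substrate cleavage in rfu per min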
T2 construct: Platelet poor plasma (PPP) obtained from human wholeblood; from tissue
Procedure: Platelet poor plasma (PPP) obtained from human wholeblood, anticoagulated with Na-Citrate, is incubated with various concentrations of the test compound together with either 25, 75, 250, or 750 μg/mL kaolin in assay buffer for 20 min at 37° C. such that for each kaolin dose used a concentration response is obtained for the test compound.

T1 sequence (P03952 20-390 limits assumed): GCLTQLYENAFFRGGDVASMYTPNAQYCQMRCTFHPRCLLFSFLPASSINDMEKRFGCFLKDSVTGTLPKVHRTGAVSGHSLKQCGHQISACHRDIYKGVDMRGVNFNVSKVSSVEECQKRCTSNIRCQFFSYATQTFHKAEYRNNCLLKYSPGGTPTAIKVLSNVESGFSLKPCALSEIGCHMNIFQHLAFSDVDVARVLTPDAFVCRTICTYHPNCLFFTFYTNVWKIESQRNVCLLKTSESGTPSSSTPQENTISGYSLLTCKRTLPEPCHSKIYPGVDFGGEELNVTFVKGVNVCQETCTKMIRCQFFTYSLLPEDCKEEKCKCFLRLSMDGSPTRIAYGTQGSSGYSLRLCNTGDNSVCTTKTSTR
T1 sequence (P03952 391-638 limits assumed): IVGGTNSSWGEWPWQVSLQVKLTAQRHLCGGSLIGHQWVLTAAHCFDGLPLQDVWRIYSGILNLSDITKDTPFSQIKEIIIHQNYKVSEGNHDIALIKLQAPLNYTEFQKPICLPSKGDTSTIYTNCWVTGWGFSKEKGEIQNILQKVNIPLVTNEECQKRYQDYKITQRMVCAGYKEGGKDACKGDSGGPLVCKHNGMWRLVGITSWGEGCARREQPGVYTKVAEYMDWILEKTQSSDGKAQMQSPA
T2 sequence (P03952 391-638 limits assumed): as above
T2 sequence (P03952 20-390 limits assumed): as the sequence (P03952 20-390 limits assumed) above

IC50 (Human PKK) [nM] | IC50 [1] [nM] | Structure (SMILES)
2.6 | 207 | COCc1nc(N2CC3CC3C2)ccc1Cn1cnc(C(=O)N[C@@H]2CCc3c2ncn3C)c1 (stereo partly drawn) [Example 180, 1-[(6-{3-Azabicyclo[3.1.0]hexan-3-yl}-2-(methoxymethyl)pyridin-3-yl)methyl]-N-[(4R)-1-methyl-1H,4H,5H,6H-cyclopenta[d]imidazol-4-yl]-1H-imidazole-4-carboxamide]
2.3 | 352 | Cn1cnc2c1CC[C@H]2NC(=O)c1cn(Cc2ccc(N3CC4CC4C3)cn2)nn1 (stereo partly drawn) [Example 8, 1-[(5-{3-Azabicyclo[3.1.0]hexan-3-yl}pyridin-2-yl)methyl]-N-[(4R)-1-methyl-1H,4H,5H,6H-cyclopenta[d]imidazol-4-yl]-1H-1,2,3-triazole-4-carboxamide]
1.1 | 274 | CCc1nc(N2CC3CC3C2)ccc1Cc1cc(C(=O)N[C@@H]2CCc3c2ncn3C)on1 (stereo partly drawn) [Example 146, 3-[(6-{3-Azabicyclo[3.1.0]hexan-3-yl}-2-ethylpyridin-3-yl)methyl]-N-[(4R)-1-methyl-1H,4H,5H,6H-cyclopenta[d]imidazol-4-yl]-1,2-oxazole-5-carboxamide]
1.3 | 272 | Cc1nc(N2CC3C(C2)C3(F)F)ccc1Cc1cc(C(=O)N[C@@H]2CCc3c2ncn3C)n(C)n1 (stereo partly drawn) [Example 167, 3-[(6-{6,6-Difluoro-3-azabicyclo[3.1.0]hexan-3-yl}-2-methylpyridin-3-yl)methyl]-1-methyl-N-[(4R)-1-methyl-1H,4H,5H,6H-cyclopenta-[d]imidazol-4-yl]-1H-pyrazole-5-carboxamide]
2.3 | 250 | COCc1nc(N2CC3C(C2)C3(F)F)ccc1Cn1cc(C(=O)N[C@@H]2CCc3c2ncn3C)nn1 (stereo partly drawn) [Example 55, 1-[(6-{6,6-Difluoro-3-azabicyclo[3.1.0]hexan-3-yl}-2-(methoxymethyl)pyridin-3-yl)methyl]-N-[(4R)-1-methyl-1H,4H,5H,6H-cyclopenta[d]-imidazol-4-yl]-1H-1,2,3-triazole-4-carboxamide]
5.5 | 249 | Cn1cnc2c1CC[C@H]2NC(=O)c1cnn(Cc2ccc(N3CC4(CC4)C3)nc2CO)c1 [Example 79, 1-[(6-{5-Azaspiro[2.3]hexan-5-yl}-2-(hydroxymethyl)-pyridin-3-yl)methyl]-N-[(4R)-1-methyl-1H,4H,5H,6H-cyclopenta[d]imidazol-4-yl]-1H-pyrazole-4-carboxamide]
0.7 | 109 | Cn1cnc2c1CC[C@H]2NC(=O)c1cnn(Cc2ccc(N3CC4CC4C3)nc2CCCO)c1 (stereo partly drawn) [Example 54, 1-[(6-{3-Azabicyclo[3.1.0]hexan-3-yl}-2-(3-hydroxypropyl)-pyridin-3-yl)methyl]-N-[(4R)-1-methyl-1H,4H,5H,6H-cyclopenta[d]imidazol-4-yl]-1H-pyrazole-4-carboxamide]
3.1 | 808 | Cc1cc(N2CC3C(C2)C3(F)F)ccc1Cn1cc(C(=O)N[C@@H]2CCc3c2ncn3C)cn1 (stereo partly drawn) [Example 199, 1-[(4-{6,6-difluoro-3-azabicyclo[3.1.0]hexan-3-yl}-2-methylphenyl)methyl]-N-[(4R)-1-methyl-1H,4H,5H,6H-cyclopenta[d]imidazol-4-yl]-1H-pyrazole-4-carboxamide]
0.7 | 194 | CC(O)c1nc(N2CC3C(C2)C3(F)F)ccc1Cn1cc(C(=O)N[C@@H]2CCc3c2ncn3C)nn1 (stereo partly drawn) [Example 215, 1-[(6-{6,6-Difluoro-3-azabicyclo[3.1.0]hexan-3-yl}-2-(1-hydroxyethyl)pyridin-3-yl)methyl]-N-[(4R)-1-methyl-1H,4H,5H,6H-cyclopenta[d]imidazol-4-yl]-1H-1,2,3-triazole-4-carboxamide]
3.3 | 197 | COCc1nc(N2CC3(CC3)C2)ccc1Cn1cnc(C(=O)N[C@@H]2CCc3c2ncn3C)c1 [Example 77, 1-[(6-{5-Azaspiro[2.3]hexan-5-yl}-2-(methoxymethyl)-pyridin-3-yl)methyl]-N-[(4R)-1-methyl-1H,4H,5H,6H-cyclopenta[d]imidazol-4-yl]-1H-imidazole-4-carboxamide]
1.4 | 151 | Cn1cnc2c1CC[C@H]2NC(=O)c1cn(Cc2ccc(N3CC4C(C3)C4(F)F)nc2F)cn1 (stereo partly drawn) [Example 7, 1-[(6-{6,6-Difluoro-3-azabicyclo[3.1.0]hexan-3-yl}-2-fluoropyridin-3-yl)methyl]-N-[(4R)-1-methyl-1H,4H,5H,6H-cyclopenta[d]imidazol-4-yl]-1H-imidazole-4-carboxamide]
0.6 | 166 | Cn1cnc2c1CC[C@H]2NC(=O)c1cn(Cc2ccc(N3CC4C(C3)C4(F)F)nc2Cl)cn1 (stereo partly drawn) [Example 57, 1-[(2-Chloro-6-{6,6-difluoro-3-azabicyclo[3.1.0]-hexan-3-yl}pyridin-3-yl)methyl]-N-[(4R)-1-methyl-1H,4H,5H,6H-cyclopenta[d]imidazol-4-yl]-1H-imidazole-4-carboxamide]
1 | 636 | Cn1cnc2c1CC[C@H]2NC(=O)c1cn(Cc2ccc(N3CC4C(C3)C4(F)F)nc2Br)nn1 (stereo partly drawn) [Example 14, 1-[(2-Bromo-6-{6,6-difluoro-3-azabicyclo-[3.1.0]hexan-3-yl}pyridin-3-yl)methyl]-N-[(4R)-1-methyl-1H,4H,5H,6H-cyclopenta[d]imidazol-4-yl]-1H-1,2,3-triazole-4-carboxamide]
0.8 | 797 | Cc1nc(N2CC3CC3C2)ccc1Cn1cc(C(=O)N[C@@H]2CCc3c2ncn3C)c(C#N)n1 (stereo partly drawn) [Example 70, 1-[(6-{3-Azabicyclo[3.1.0]hexan-3-yl}-2-methylpyridin-3-yl)methyl]-3-cyano-N-[(4R)-1-methyl-1H,4H,5H,6H-cyclopenta[d]imidazol-4-yl]-1H-pyrazole-4-carboxamide]
0.8 | 342 | CCc1nc(N2CC3CC3C2)ccc1Cc1cc(C(=O)N[C@@H]2CCc3c2ncn3C)[nH]n1 (stereo partly drawn) [Example 165, 3-[(6-{3-Azabicyclo[3.1.0]hexan-3-yl}-2-ethylpyridin-3-yl)methyl]-N-[(4R)-1-methyl-1H,4H,5H,6H-cyclopenta[d]imidazol-4-yl]-1H-pyrazole-5-carboxamide]
20.3 | 1040 | Cn1cnc2c1CC[C@H]2NC(=O)c1cn(Cc2cnc(N3CC4CC4C3)nc2CO)cn1 (stereo partly drawn) [Example 214, 1-[(2-{3-Azabicyclo[3.1.0]hexan-3-yl}-4-(hydroxymethyl)pyrimidin-5-yl)methyl]-N-[(4R)-1-methyl-1H,4H,5H,6H-cyclopenta[d]imidazol-4-yl]-1H-imidazole-4-carboxamide]
0.7 | 245 | Cn1cnc2c1CC[C@H]2NC(=O)c1cc(Cc2ccc(N3CC4C(C3)C4(F)F)nc2C(F)F)no1 (stereo partly drawn) [Example 145, 3-[(6-{6,6-Difluoro-3-azabicyclo[3.1.0]hexan-3-yl}-2-(difluoromethyl)pyridin-3-yl)methyl]-N-[(4R)-1-methyl-1H,4H,5H,6H-cyclopenta-[d]imidazol-4-yl]-1,2-oxazole-5-carboxamide]
3.1 | 635 | Cn1cnc2c1CC[C@H]2NC(=O)c1cnn(Cc2ccc(N3CC4C(C3)C4(F)F)nc2C2CCC2)c1 (stereo partly drawn) [Example 67, 1-[(2-Cydobutyl-6-{6,6-difluoro-3-azabicyclo[3.1.0]hexan-3-yl}pyridin-3-yl)methyl]-N-[(4R)-1-methyl-1H,4H,5H,6H-cyclopenta[d]imidazol-4-yl]-1H-pyrazole-4-carboxamide]
